The text below walks through data of patent US9303017B2, “2,5-disubstituted-pyridyl nicotinic ligands, and methods of use thereof” (Georgetown University, priority 2011, dated 2016).

Like-named read-outs stand apart in the source and are kept apart here.

One series deals with rat α3β4 nAChRs (Rattus norvegicus (Rat), UniProt P04757+P12392). Put plainly: 86Rb+ efflux assay (activation and desensitization), α3β4. It counts as cell-based. Particulars: read-out: IC50(10′) α3β4 nAChRs. As for the experimental part:
(§1) In Vitro Effects on nAChR Function. […] Their agonist activities were assessed by measuring stimulated ^86Rb^+ efflux from stably transfected cells, either expressing human α4β2 nAChRs or rat α3β4 receptors.
(§2) Cell Lines and Cell Culture. The cell lines expressing defined rat nAChR subtypes were established previously by stably transfecting HEK 293 cells with rat nAChR subunit genes. The cell line expressing human α4β2 nAChRs, YXα4β2H1, was established recently. These cell lines were maintained in minimum essential medium (MEM) supplemented with 10% fetal bovine serum, 100 units/mL penicillin G, […] and selective antibiotics at 37° C. with 5% CO2 in a humidified incubator. Fetal bovine serum was provided by Gemini Bio-Products (Woodland, Calif.). Tissue culture medium and antibiotics were obtained from Invitrogen Corporation (Carlsbad, Calif.), unless otherwise stated.
(§3) ^86Rb^+ Efflux Assay. Functional properties of compounds at nAChRs expressed in the transfected cells were measured using ^86Rb^+ efflux assays as described previously. In brief, cells expressing human α4β2 or rat α3β4 nAChRs were plated into 24-well plates coated with poly-D-lysine. The plated cells were grown at 37° C. for 18 to 24 hour to reach 85-95% confluence. The cells were then incubated in growth medium (0.5 mL/well) containing ^86Rb^+ (2 μCi/mL) for 4 hour at 37° C. The loading mixture was then aspirated, and the cells were washed four times with 1 mL buffer (15 mM HEPES, 140 mM NaCl, 2 mM KCl, 1 mM MgSO4, 1.8 mM CaCl2, 11 mM Glucose, pH 7.4). One mL of buffer with or without compounds to be tested was then added to each well. After incubation for 2 min, the assay buffer was collected for measurements of ^86Rb^+ released from the cells. Cells were then lysed by adding 1 mL of 100 mM NaOH to each well, and the lysate was collected for determination of the amount of ^86Rb^+ that was in the cells at the end of the efflux assay. Radioactivity of assay samples and lysates was measured by liquid scintillation counting. Total loading (cpm) was calculated as the sum of the assay sample and the lysate of each well. The amount of ^86Rb^+ efflux was expressed as a percentage of ^86Rb^+ loaded. […] For obtaining EC50 and Emax values, stimulation curves were constructed in which 8 different concentrations of a ligand were included in the assay. […] EC50, Emax and IC50(10′) values were determined by nonlinear least-squares regression analyses (GraphPad, San Diego, Calif.).
(§4) The functional properties of the ligands were determined by ^86Rb^+ efflux assays in cells expressing α3β4 and α4β2 nAChR subtypes. The functional activity of each ligand was measured for its agonism, antagonism and desensitization ability. Agonist activity for each of the ligands was tested at eight different concentrations. […] The full concentration-effect curves generated potency (EC50) and efficacy (Emax) of each ligand. […] We tested each ligand for antagonist activity at eight concentrations. The potency (IC50(0′)) of each ligand as an antagonist was derived from the full concentration-effect curves.

The test system of the next series is ferrets. Kind of series: Emesis studies in ferrets. It counts as in vivo, ferret (Mustela putorius furo). Particulars: 1-30 mg/kg s.c., 1 hr observation. On the procedure: Emetic Effects of Compound (S)-15 (YL-1-127) in Ferrets. Effects of (S)-15 in causing nausea and emesis were assessed in a ferret model. For comparison, varenicline was also tested. […] In general, all animals remained alert and active with periods of inactivity that mirrored their baseline behavior within the 1 hr observation period.
In one animal, this behavior was accompanied by oral stereotypy (licking), whereas in two animals it was interspersed by episodes of backward walking. On the average, these behaviors manifested around ˜2.20 min. […] Occasionally, when animals tried to ambulate they would immediately cease their movement after each attempt. This would be followed by a momentary increase in breathing, giving the impression that the animal was in distress.
General Procedures for Emesis Studies in Ferrets. Studies were undertaken in male ferrets (Mustela putorius furo) weighing 0.9-1.5 kg (Marshall Farms, N.Y.). They were housed in controlled conditions of room temperature (22° C.) and light (12:12 h light-dark cycle) with free access to food and water. Prior to each experiment, food was withheld overnight, whereas water was provided ad libitum.
Emetic testing consisted of placing animals individually in a polycarbonate enclosure. Following a 30 min acclimation period, each animal randomly received a subcutaneus injection of varencline or compound (S)-15 (YL-1-127) in the subscapular region. A 60 min observation and video recording followed the drug administration. […] All drugs were dissolved in sterile saline.
Video analysis of the incidence of emesis, stereotypical behaviors (such as licking, mouth-clawing, backward walking, gagging, and burying of the head in cage) and GI side effects (diarrhea) was done off-line. Stereotypical behaviors are thought to be reflective of a subjective sensation of nausea. The emetic index of a drug was calculated as the […] of animals displaying emesis (one or more times in 60 min) divided by the total number of animals tested. An emetic episode was defined as the forceful oral expulsion of liquid or solid upper gastrointestinal contents that is temporally separated from another by at least 30 s.
The Nausea Index for the stereotypical behaviors was derived from the mean±SEM number of nausea behaviors observed among all animals in a given treatment group. Significance was determined at p<0.05.

The next series deals with human α4β2 nAChRs (Homo sapiens (Human), UniProt P17787+P43681). Kind of series: 86Rb+ efflux assay (activation and desensitization), α4β2. It counts as cell-based. Particulars: for Emax: read-out: Emax α4β2 nAChRs; for IC50: desensitization. On the procedure:
as §1, §2, §3, §4

As a reminder, the IC50 is the midpoint of a concentration-inhibition curve. Broadly, the EC50 is the concentration that produces a half-maximal response. For orientation: Emax means the size of the effect at its maximum, as opposed to the concentration needed. Consider `CCCCC#Cc1cnc(C)c(OC[C@@H]2CCN2)c1` [(S)-15, (S)-3-(azetidin-2-ylmethoxy)-5-(hex-1-ynyl)-2-methylpyridine], for which the IC50 was above 10000 nM on rat α3β4 nAChRs; 18 nM on human α4β2 nAChRs (10 min pre-treatment, Table 3 (Example 4), read-out: IC50(10′) α4β2); 180 nM at human α4β2 nAChRs (10 min pre-incubation before 100 μM nicotine, Table 2, read-out: IC50(10′) α4β2 nAChRs). Moreover, the “emetic episodes or stereotypical behaviors indicative of nausea” value with ferrets is listed as “did not elicit any emetic episodes or stereotypical behaviors”. The EC50 at human α4β2 nAChRs (agonist activity, ND = no significant stimulated efflux detected) was determined as 310 nM. Besides, the Emax on human α4β2 nAChRs (agonist efficacy normalized to Emax of nicotine, ND = no significant stimulated efflux detected) was below 20%; at human α4β2 nAChRs, 15%.
